# From patent US4996223A, “New organic compounds having opioid properties” (priority 1986, dated 1991)
# “Also recorded” adds a separate entry of the source. Where two headings read alike, the source gives them in different places.
# Legend:
# mice [1] = assay: animal or person; format: in vivo, mouse; settings: for antagonism of analgesia by naloxone: analgesic tests (Hot Plate and Abdominal Constriction); for ED50: Mus musculus, read-out: ED50 Hot Plate
# Protocol: (§1) Analgesic activity was assessed using two methods in mice--the Hot Plate Test and the Abdominal Constriction Test (acetic acid). The test drug was given by subcutaneous injection and the results expressed as ED50 with 95% confidence intervals.
# (§2) ED50 and 95% confidence intervals.
# (§3) mg/kg, subcutaneous injection.
# [2] = system: opioid receptors of the mouse vas deferens; format: cell-based; settings: for log dose ratio (±S.D.), shift by naloxone, vas deferens: mean of not less than 6 determinations
# Protocol: Vasa deferentia were removed and mounted in 1.2 ml tissue baths under a resting tension of 200 mg in Mg^2+ -free Krebs solution bubbled with a mixture of 95% oxygen and 5% carbon dioxide at 36 degrees C. The preparations were left for 1 hour to equilibriate. Contractions were elicited from platinum electrodes fused to the sides of the tissue bath using supramaximal voltage (usually above 100 V), a pulse width of lms and a frequency of 0.1 Hz. Isometric contractions were recorded on a Grass polygraph. As with the ileum, concentration effect relationships were determined in the absence then presence of naloxone.
# (§4) Eseroline was dissolved in minimal 0.1N hydrophloric acid and dilutions made with water. Salts were dissolved in water.
# The values are derived from individual comparisons of the percentage inhibition of the preparations in the presence of a concentration of naloxone and that in the same preparation in the absence of naloxone.
# [3] = system: opioid receptors of the guinea pig ileum; format: cell-based; settings: for inhibition of electrically induced contractions / antagonism by naloxone / opioid (opiate-like) activity in vitro: words; for antagonism by naloxone: naloxone 0.5, 5 and 50 ng/ml (eseroline) or 5 and 50 ng/ml; for opioid (opiate-like) activity in vitro: isolated tissue preparations; for log dose ratio (±S.D.), shift by naloxone, ileum: mean of not less than 6 determinations; for enhancement of electrically induced contractions / excitatory stage: eseroline above 400 ng/ml in presence of naloxone; for evidence of cholinesterase inhibition on the ileum: inferred from enhancement of contractions
# Protocol: Sections of guinea-pig ileum were set up for transmural stimulation under a resting tension of 0.75 g in Krebs solution bubbled with 5% carbon dioxide in oxygen at 37 degrees C according to the method of Kosterlitz and Watt (1968) Contractions were elicited from stainless steel electrodes, one of which was sited in the lumen at supramaximal voltage and a frequency of 0.05 Hz. Isometric contractions were recorded on a Rikadenki recorder. Potential agonists were added directly to the bath and the contact time was until maximum inhibition had occurred. The responses of the preparation in the presence of naloxone were examined with the naloxone present in the physiological solution. Results were expressed as percent inhibition. In each experiment a log dose effect relationship was determined using at least four concentrations in the absence of antagonist, and then in the presence of one or more concentrations of naloxone.
# as §4
# [4] = system: cholinesterase (guinea pig ileum as the enzyme source); assay: Anticholinesterase Test (method of Ellman, Courtney et al.); format: biochemical; settings: concentrations up to 6.4 ug/ml where stated
# Protocol: Anticholinesterase activity was assessed using the method of Ellman, Courtney et al., (1961) using guinea pig ileum as the enzyme source.
# mice [5] = assay: animal or person; format: in vivo; settings: Mus musculus, sc, subcutaneous injection, 95% confidence intervals, read-out: ED50 Abdominal Constriction (Acetic acid)
# Protocol: as §1, §2, §3
# [6] = relative to morphine; cited from earlier work
# cholinesterase = settings: cited from earlier work
# [7] = Naloxone 10 ng/ml (so in the source)
smiles,measurement,setting,value
"C=CCN1CC[C@]23c4c5ccc(O)c4O[C@H]2C(=O)CC[C@@]3(O)[C@H]1C5 [Naloxone, naloxone, reference compound]",antagonism of analgesia by naloxone,mice [1]; mice,effective antagonist
"CN1CC[C@]23c4c5ccc(O)c4O[C@H]2[C@@H](O)C=C[C@H]3[C@H]1C5 [morphine, reference compound]","times more potent than (±)-6-hydroxy-9,10-dimethyl-echiboline","[2]; mouse vas deferens, from EC50 values",3.6 times
same,ED50,mice [1]; sc,3.22 mg/kg
same,"times more potent than (±)-6-hydroxy-9,10-dimethyl-echiboline","[3]; guinea pig ileum, from EC50 values",2.8 times
same,inhibition of electrically induced contractions,[3]; guinea pig ileum,familiar inhibition of the preparation
same,antagonism by naloxone,[3]; guinea pig ileum,naloxone antagonism was confirmed
"C=CCN1CCC23CCCCC12N(C)c1ccc(O)cc13 (racemic) [6-Hydroxy-9-methyl-10-allyl-echiboline, 1,2,3,4-tetrahydro-6-hydroxy-9-methyl-10-allyl-9a,4a-(iminoethano)-9H-carbazole]","IC50, inhibition of contractions of the ileum",[3],0.3 µg/mL
same,antagonist activity against morphine,[3],no antagonist activity against morphine
same,potency relative to morphine,[3],about ten times less potent than morphine
same,receptor selectivity / receptor population compared with morphine,[3],"interaction with a different receptor population than that with which morphine interacts; also recorded: likely to be the ""kappa"" receptor"
same,antagonism by naloxone,[3]; guinea pig ileum,antagonized by naloxone; also recorded: relative lack of potency of naloxone as an antagonist
same,opioid (opiate-like) activity in vitro,[3],possesses opioid agonist activity in vitro
"CN1c2ccc(O)cc2C23CCCCC12N(CC1CC1)CC3 (racemic) [1,2,3,4-tetrahydro-6-hydroxy-9-methyl-10-cyclopropylmethyl-9a,4a-(iminoethano)-9H-carbazole]",antagonist activity against morphine,[3],no detectable antagonist activity against morphine
same,inhibition of electrically induced contractions,[3]; guinea pig ileum,"inhibited the contractions of the ileum, but was of weaker potency"
same,antagonism by naloxone,[3]; guinea pig ileum,Naloxone had little antagonist activity
"CN1CCC23CCCCC12N(C)c1ccc(O)cc13 (racemic) [6-hydroxy-9,10-dimethyl-echiboline, 1,2,3,4-tetrahydro-6-hydroxy-9,10-dimethyl-9a,4a-(iminoethano)-9H-carbazole]",antagonism by naloxone compared with morphine,[2],some ten times less effective as an antagonist than against morphine
same,"log dose ratio (±S.D.), shift by naloxone, vas deferens",[2]; [7],0.87 (+0.19)
same,"log dose ratio (±S.D.), shift by naloxone, vas deferens",[2]; Naloxone 500 ng/ml,1.66 (+0.13)
same,anti-cholinesterase inhibitory activity,[4],no evidence of cholinesterase inhibitory activity
same,anti-cholinesterase inhibitory activity,[4]; listed as echiboline derivative,no detectable anti-cholinesterase inhibitory activity
same,ED50,"mice [1]; sc, mice, subcutaneous injection, 95% confidence intervals",1.71 mg/kg
same,antagonism of analgesia by naloxone,mice [1]; mice,antagonised by naloxone
same,potency relative to morphine in mice,"mice [1]; mouse, in vivo, sc",somewhat greater than that predicted from the in vitro tests
same,receptor selectivity / receptor population compared with morphine,[3],differs from that of morphine
same,"log dose ratio (±S.D.), shift by naloxone, ileum",[3]; Naloxone 5 ng/ml,0.91 (+0.27)
same,"log dose ratio (±S.D.), shift by naloxone, ileum",[3]; [7],1.54 (+0.22)
same,EC50 (±SD) Guinea-pig ileum,"[3]; Table 1, mean of not less than 12 determinations, S.D. range on next line",0.0335 µg/mL
same,"inhibition, some individual values","[3]; guinea pig ileum, individual values",over 90%
same,inhibition of electrically induced contractions,[3]; guinea pig ileum,similarly inhibited the electrically-induced contractions
same,antagonism by naloxone,[3]; guinea pig ileum,antagonised by naloxone in a concentration-dependent manner
same,enhancement of electrically induced contractions / excitatory stage,[3]; guinea pig ileum,at no stage was an excitatory stage seen; also recorded: No enhancement of contractions was seen
same,evidence of cholinesterase inhibition on the ileum,[3],no evidence of cholinesterase inhibition
same,opioid (opiate-like) activity in vitro,[3],possessed opiate-like activity
same,ED50,mice [5],0.23 mg/kg
"CN1CCC2(C)c3cc(O)ccc3N(C)C12 (single isomer, unassigned) [eseroline, reference compound]",analgesic properties,[6],approximately equipotent with morphine
same,anticholinesterase activity,cholinesterase,retains undesirable anticholinesterase activity
same,maximum inhibition of electrically induced contractions,[3]; guinea pig ileum,about 50%
same,inhibition of electrically induced contractions,[3]; guinea pig ileum,concentration-dependent inhibition of contractions
same,antagonism by naloxone,[3]; guinea pig ileum,antagonised by naloxone in a concentration-dependent manner
same,enhancement of electrically induced contractions / excitatory stage,[3]; guinea pig ileum,enhanced electrically-induced contractions of the muscle
same,evidence of cholinesterase inhibition on the ileum,[3],evidence for anti-cholinesterase activity was also seen
same,opioid (opiate-like) activity in vitro,[3],has opiate activity
